The results in this text go back to patent publication US7214697B2, “2-Oxo-benzimidazolyl substituted ethanolamine derivatives and their use as β3 agonists” (Eli Lilly and Company, priority 2002, dated 2007).

For one data set, the system named is rat atria. In words: In Vitro Rat Atrial Tachycardia. The note with it: isolated rat atria, cumulative addition until no further increase in atrial rate or 10^-4; average of at least 3 runs. Here is the method: Male rats (250–350 g) (Harlan Sprague Dawley, Indianapolis, Ind., USA) are killed by cervical dislocation. Hearts are removed and the left and right atria are dissected and mounted with thread in tissue baths containing 10 mls of modified Krebs' solution. Initial resting tension is 1.5–2.0 g at the outset of the experiment (Naunyn-Schmied Arch. Pharmacol., 320:145, 1982). Tissues are allowed to equilibrate approximately 30 minutes with vigorous oxygenation before exposure to a compound of the invention.
To evaluate the ability of test compounds to increase heart rate, representative compounds of the present invention are added cumulatively once the atrial rate reached a steady state from the previous addition. Compound addition is continued until no further increase in atrial rate occurred or until a concentration of 10^−4 is reached. The increase in beats per minute (bpm) is measured for each concentration of test compound by means of a BioPac System (Br. J. of Pharmacol., 126:1018–1024, 1999).
The “% increase” values represent the average of at least 3 runs.

For data set [1], the target named is T1, human β3 adrenergic receptor (Homo sapiens, UniProt P13945).
T1 construct: expressed in transfected cells; host or cells: DXB-11 Chinese hamster ovary (CHO) cell line, stably transfected (phd expression vector)
Kind of data set: whole cell receptor coupled c-AMP assay (Emax relative to isoproterenol). To be noted: transfected CHO cells, c-AMP SPA; compound's maximal response divided by isoproterenol maximal response times 100; average of at least 3 runs; SEM in brackets; read-out: Emax (SEM), % intrinsic activity relative to isoproterenol. Format: cell-based. An excerpt: The Emax values represent the average of at least 3 runs except as otherwise indicated.
The genes encoding the human β1-adrenergic receptor (Frielle et al., Proc. Natl. Acad. Sci., 84:7920–7924, 1987), the human β2-adrenergic receptor (Kobika et al., Proc. Natl. Acad. Sci., 84:46–50, 1987, Emorine et al., Proc. Natl. Acad. Sci., 84:6995–6999, 1987) and the human β3 adrenergic receptor (GraTineman et al., Molecular Pharmacology, 44(2):264–70, 1993) are individually subcloned into a phd expression vector (Grinnell el al., Bio/Technology, 5:1189–1192, 1987) and transfected into the DXB-11 Chinese hamster ovary (CHO) cell line by calcium phosphate precipitation methodology. The stably transfected cells are grown to 95% confluency in 95% Dulbecco's modified Eagles Medium (DMEM), 5% fetal bovine serum and 0.01% proline. Media is removed and the cells are washed with phosphate buffered (pH 7.4) saline (without magnesium and calcium). Cells are then lifted using an enzyme free cell dissociation solution (Specialty Media, Lavallette, N.J.) and pelleted by centrifugation.
Cells from each of the above cell lines are resuspended and added (20,000/well) to a 96-well plate. Cells are incubated at 37° C. with representative compounds of the invention for 20 minutes in buffer (Hank's balanced salt solution, 10 mM HEPES, 0.1% BSA, 1 mM L-ascorbic acid, 0.2% dimethyl sulfoxide, 1 mM 3-isobutyl-1-methylxanthine, pH 7.4). After halting the incubation with quench buffer (50 mM Na Acetate, 0.25% Triton X-100, pH 5.8), the c-AMP level is quantified by scintillation proximity assay (SPA) using a modification of the commercially available c-AMP kit (Amersham, Arlington Heights, Ill.) with rabbit anti-cAMP antibody (ICN Bioniedicals, Aurora, Ohio) for the kit.
Sigmoidal dose response curves, from the whole cell receptor coupled c-AMP assay are fit to a four parameter logistic equation using non linear regression: y=(a-d)/(1+(Dose/c)^b)+d where a and d are responses at zero and maximal dose, b is the slope factor and c is the EC50 as previously described (DeLean et al., Am. J. Physiol., 235, E97–E102, 1978). EC50 is assessed as the concentration producing 50% of the maximum response to each agonist.
Isoproterenol is accepted in the art as a non-selective β3 agonist and is widely used as a comparator in evaluating the activity of compounds. See Trends in Pharm. Sci., 15:3, 1994. The % intrinsic activity (Emax) of representative compounds of the invention is assessed relative to isoproterenol by the compound's maximal response divided by the isoproterenol maximal response times 100.

T1 sequence (P13945 whole entry): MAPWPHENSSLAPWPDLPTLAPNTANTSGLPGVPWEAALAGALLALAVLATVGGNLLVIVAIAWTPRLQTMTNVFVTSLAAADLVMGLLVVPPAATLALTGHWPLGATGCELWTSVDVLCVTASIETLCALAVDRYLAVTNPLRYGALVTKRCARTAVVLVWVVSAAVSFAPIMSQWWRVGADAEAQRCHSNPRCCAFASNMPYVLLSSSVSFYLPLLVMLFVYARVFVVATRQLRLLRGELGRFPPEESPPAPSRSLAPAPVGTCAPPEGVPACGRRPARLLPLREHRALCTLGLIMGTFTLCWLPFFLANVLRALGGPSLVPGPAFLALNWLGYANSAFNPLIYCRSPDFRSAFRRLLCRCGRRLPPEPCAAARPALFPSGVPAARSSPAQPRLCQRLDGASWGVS

In the case of `CC(C)(Cc1ccc(Cc2ccc(C(N)=O)cn2)cc1)NC[C@H](O)COc1cccc2[nH]c(=O)n(CC3CCC3)c12` [Cyclobutylmethyl], the “% Increase in Heart Rate” value with rat atria is given as 6.5 ± 2.2%. Consider `CC(C)(Cc1ccc(Cc2ccc(C(N)=O)cn2)cc1)NC[C@H](O)COc1cccc2[nH]c(=O)n(CC3CCCC3)c12` [Cyclopentylmethyl], for which the “% Increase in Heart Rate” value with rat atria came to 9.9 ± 0.3%.

As to `CC(C)(Cc1ccc(Cc2ccc(C(N)=O)cn2)cc1)NC[C@H](O)COc1cccc2[nH]c(=O)n(CC3CC3)c12` [Cyclopropylmethyl], in the data set on rat atria, the “% Increase in Heart Rate” value amounted to 8.9 ± 1.2%.

Turning to `CCn1c(=O)[nH]c2cccc(OC[C@@H](O)CNC(C)(C)Cc3ccc(Cc4ccc(C(N)=O)cn4)cc3)c21` [Ethyl, reference compound], in the data set with rat atria, the “% Increase in Heart Rate” value is 19.9 ± 0.4%. Take `CC(C)(C)Cn1c(=O)[nH]c2cccc(OC[C@@H](O)CNC(C)(C)Cc3ccc(Oc4ccc(C(N)=O)cn4)cc3)c21` [Example 12]: the Emax in data set [1] came out at 65.5%. As to `CC(C)(C)Cn1c(=O)[nH]c2cccc(OC[C@@H](O)CNC(C)(C)Cc3ccc(Oc4ncccc4C(N)=O)cc3)c21` [Example 13], the maximal response (Emax) in data set [1] stood at 66.4%. Still for that read-out and setting: to `CC(C)(Cc1ccc(Oc2ccc(C(N)=O)cn2)cc1)NC[C@H](O)COc1cccc2[nH]c(=O)n(CC3CC3)c12` [Example 14] belongs 67.9%. On the same count and under the same terms, to `CC(C)(Cc1ccc(Oc2ncccc2C(N)=O)cc1)NC[C@H](O)COc1cccc2[nH]c(=O)n(CC3CC3)c12` [Example 15] belongs 80.1%; to `CC(C)(Cc1ccc(Oc2ccc(C(N)=O)cc2Cl)cc1)NC[C@H](O)COc1cccc2[nH]c(=O)n(CC3CC3)c12` [Example 16], 76%. On to `CC(C)(Cc1ccc(Oc2ccc(C(N)=O)cn2)cc1)NC[C@H](O)COc1cccc2[nH]c(=O)n(CC3CCC3)c12` [Example 17], for which the Emax in data set [1] was 58.2%.

As for `CC(C)(Cc1ccc(Oc2ncccc2C(N)=O)cc1)NC[C@H](O)COc1cccc2[nH]c(=O)n(CC3CCC3)c12` [Example 18], in data set [1], the Emax was 59.8%.

`CC(C)(Cc1ccc(Oc2ccc(C(N)=O)cn2)cc1)NC[C@H](O)COc1cccc2[nH]c(=O)n(CC3CCCC3)c12` [Example 19]: the maximal effect (Emax) in data set [1] was determined as 63.7%. Consider `CC(C)(Cc1ccc(Oc2ncccc2C(N)=O)cc1)NC[C@H](O)COc1cccc2[nH]c(=O)n(CC3CCCC3)c12` [Example 20], for which the Emax in data set [1] is 66.8%.

With `CC(C)(Cc1ccc(Oc2ccc(C(N)=O)cc2Cl)cc1)NC[C@H](O)COc1cccc2[nH]c(=O)n(CC3CCCC3)c12.Cl` [Example 21], the melting point is 159 to 164 °C (dec.). Regarding `CC(C)(Cc1ccc(Cc2ccc(C(N)=O)cn2)cc1)NC[C@H](O)COc1cccc2[nH]c(=O)[nH]c12` [Hydrogen, reference compound], the “% Increase in Heart Rate” value in the data set on rat atria was found to be 17.7 ± 3.7%. In the case of `Cn1c(=O)[nH]c2cccc(OC[C@@H](O)CNC(C)(C)Cc3ccc(Cc4ccc(C(N)=O)cn4)cc3)c21` [Methyl, reference compound], in the data set with rat atria, the “% Increase in Heart Rate” value is reported as 20.8 ± 1.8%.
